Where “and” joins values, the source holds several entries; their conditions need not be identical. Equal values may be shown once. Toxic doses and inconclusive results are not listed.
System: P388 leukemia ip, CD2F1 mice, survival T/C
Assay: NCI In Vivo Anticancer Drug Screen. Data for tumor model P388 Leukemia (intraperitoneal) in CD2F1 (CDF1) mice
Conditions: endpoint: median survival time, higher = longer survival
In short: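 Mice carrying the transplanted tumor received test compound or vehicle. Survival was recorded in each group, and the value is the treated-group measurement divided by that of the vehicle-treated control group.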

[1] = dose: 50.0 mg/kg/injection, schedule: Q01DX009 (ip), vehicle: Klucel (hydroxypropylcellulose) (HPC)
[2] = dose: 100.0 mg/kg/injection, schedule: Q01DX009 (ip), vehicle: Klucel (hydroxypropylcellulose) (HPC)
[3] = dose: 200.0 mg/kg/injection, schedule: Q01DX009 (ip), vehicle: Klucel (hydroxypropylcellulose) (HPC)
[4] = dose: 50.0 mg/kg/injection, schedule: Q04DX003 (ip), vehicle: saline
[5] = dose: 25.0 mg/kg/injection, schedule: Q01DX009 (ip), vehicle: Klucel (hydroxypropylcellulose) (HPC)
[6] = dose: 50.0 mg/kg/injection, schedule: Q01DX009 (ip), vehicle: saline
[7] = dose: 60.0 mg/kg/injection, schedule: Q01DX005 (ip), vehicle: saline with Tween-80
[8] = dose: 120.0 mg/kg/injection, schedule: Q01DX005 (ip), vehicle: saline with Tween-80
[9] = dose: 240.0 mg/kg/injection, schedule: Q01DX005 (ip), vehicle: saline with Tween-80
[10] = dose: 50.0 mg/kg/injection, schedule: Q01DX009 (ip), vehicle: other
[11] = dose: 100.0 mg/kg/injection, schedule: Q01DX009 (ip), vehicle: other
[12] = dose: 200.0 mg/kg/injection, schedule: Q01DX009 (ip), vehicle: other
[13] = dose: 100.0 mg/kg/injection, schedule: Q04DX003 (ip), vehicle: saline
[14] = dose: 200.0 mg/kg/injection, schedule: Q04DX003 (ip), vehicle: saline
[15] = dose: 50.0 mg/kg/injection, schedule: Q01DX005 (ip), vehicle: saline with Tween-80
[16] = dose: 100.0 mg/kg/injection, schedule: Q01DX005 (ip), vehicle: saline with Tween-80
[17] = dose: 200.0 mg/kg/injection, schedule: Q01DX005 (ip), vehicle: saline with Tween-80

## CCn1c2ccccc2c2cc(N)c(N=Nc3ccc([N+](=O)[O-])c(OC)c3)cc21
[1]
  T/C: 104 % of control
[2]
  T/C: 104 % of control
[3]
  T/C: 105 % of control

## CN1CC[N+](C)(Cc2ccc(C[N+]3(C)CC[N+](C)(Cc4ccc(CCl)cc4)CC3)cc2)CC1 (centres undefined)
dose: 12.5 mg/kg/injection, schedule: Q04DX003 (ip), vehicle: saline
  T/C: 112 % of control
dose: 25.0 mg/kg/injection, schedule: Q04DX003 (ip), vehicle: saline
  T/C: 102 % of control
[4]
  T/C: 119 % of control

## N[C@@H](C(=O)O)[C@@H]1C=CCCC1
dose: 100.0 mg/kg/injection, schedule: Q04DX002 (ip), vehicle: saline
  T/C: 101 % of control
dose: 200.0 mg/kg/injection, schedule: Q04DX002 (ip), vehicle: saline
  T/C: 94 % of control

## CC12CC(C(=O)O)C(C)(C1=O)C(c1ccccc1)=C2c1ccccc1 (centres undefined)
[5]
  T/C: 92 % of control
[1]
  T/C: 93 % of control
[2]
  T/C: 97 % of control
[3]
  T/C: 94 % of control

## Cn1c(C(=O)c2cc3ccccc3n2C)cc2ccccc21
[6]
  T/C: 100 % of control
dose: 100.0 mg/kg/injection, schedule: Q01DX009 (ip), vehicle: saline
  T/C: 97 % of control
dose: 200.0 mg/kg/injection, schedule: Q01DX009 (ip), vehicle: saline
  T/C: 103 % of control

## O=c1oc(-c2cc([N+](=O)[O-])ccc2Cl)nc2ccccc12
dose: 33.0 mg/kg/injection, schedule: Q04DX003 (ip), vehicle: saline with Tween-80
  T/C: 100 % of control
dose: 50.0 mg/kg/injection, schedule: Q04DX003 (ip), vehicle: saline with Tween-80
  T/C: 100 % of control
dose: 75.0 mg/kg/injection, schedule: Q04DX003 (ip), vehicle: saline with Tween-80
  T/C: 99 % of control

## Cc1nc2ccccc2c(=O)n1-c1nc2ccccc2s1
[7]
  T/C: 92 % of control
[8]
  T/C: 89 % of control and 90 % of control
[9]
  T/C: 103 % of control

## O=c1[nH]c2cc(Cl)ccc2nc1/C=C(\O)c1ccc2ccccc2c1
[7]
  T/C: 89 % of control
[8]
  T/C: 89 % of control
[9]
  T/C: 110 % of control

## COC(=O)NC1C(C)OC(OC2C/C=C(/C)C3C=CC4C(OC5CC(OC6CCC(OC7CC(O)C(OC8CCC(O)C(C)O8)C(C)O7)C(C)O6)C(OC(C)=O)C(C)O5)C(C)CC(C)C4C3(C)/C(O)=C3/C(=O)OC4(CC(C=O)=CC(O)C4/C=C\2C)C3=O)CC1(C)[N+](=O)[O-] (centres undefined)
dose: 2.25 mg/kg/injection, schedule: Q01DX005 (iv), vehicle: water
  T/C: 97 % of control
dose: 2.5 mg/kg/injection, schedule: Q01DX005 (ip), vehicle: water
  T/C: 106 % of control and 120 % of control
dose: 3.06 mg/kg/injection, schedule: Q01DX005 (ip), vehicle: water
  T/C: 121 % of control
dose: 3.35 mg/kg/injection, schedule: Q01DX005 (iv), vehicle: water
  T/C: 96 % of control
dose: 4.49 mg/kg/injection, schedule: Q01DX005 (ip), vehicle: water
  T/C: 121 % of control
dose: 5.0 mg/kg/injection, schedule: Q01DX005 (ip), vehicle: water
  T/C: 121 % of control
dose: 5.0 mg/kg/injection, schedule: Q01DX005 (iv), vehicle: water
  T/C: 95 % of control
dose: 6.7 mg/kg/injection, schedule: Q01DX005 (ip), vehicle: water
  T/C: 118 % of control
dose: 7.47 mg/kg/injection, schedule: Q01DX005 (iv), vehicle: water
  T/C: 97 % of control
dose: 10.0 mg/kg/injection, schedule: Q01DX005 (ip), vehicle: water
  T/C: 121 % of control and 123 % of control and 124 % of control
dose: 11.14 mg/kg/injection, schedule: Q01DX005 (iv), vehicle: water
  T/C: 96 % of control

## CC(=O)OCc1cc[n+](C)cc1
dose: 12.5 mg/kg/injection, schedule: Q01DX009 (ip), vehicle: water
  T/C: 100 % of control
dose: 25.0 mg/kg/injection, schedule: Q01DX009 (ip), vehicle: water
  T/C: 105 % of control
dose: 50.0 mg/kg/injection, schedule: Q01DX009 (ip), vehicle: water
  T/C: 101 % of control
dose: 100.0 mg/kg/injection, schedule: Q01DX009 (ip), vehicle: water
  T/C: 102 % of control
dose: 200.0 mg/kg/injection, schedule: Q01DX009 (ip), vehicle: water
  T/C: 93 % of control
dose: 400.0 mg/kg/injection, schedule: Q01DX009 (ip), vehicle: water
  T/C: 112 % of control

## CC(=O)OC1OC(/C=N\N(C)C)C(OCc2ccccc2)C(OCc2ccccc2)C1OC(C)=O (centres undefined)
dose: 3.12 mg/kg/injection, schedule: Q01DX005 (ip), vehicle: Klucel (hydroxypropylcellulose) (HPC)
  T/C: 95 % of control
dose: 6.25 mg/kg/injection, schedule: Q01DX005 (ip), vehicle: Klucel (hydroxypropylcellulose) (HPC)
  T/C: 97 % of control
dose: 6.25 mg/kg/injection, schedule: Q01DX009 (ip), vehicle: Klucel (hydroxypropylcellulose) (HPC)
  T/C: 104 % of control
dose: 12.5 mg/kg/injection, schedule: Q01DX005 (ip), vehicle: Klucel (hydroxypropylcellulose) (HPC)
  T/C: 94 % of control
dose: 12.5 mg/kg/injection, schedule: Q01DX009 (ip), vehicle: Klucel (hydroxypropylcellulose) (HPC)
  T/C: 92 % of control
[5]
  T/C: 92 % of control
dose: 25.0 mg/kg/injection, schedule: Q01DX009 (ip), vehicle: other
  T/C: 92 % of control
[10]
  T/C: 88 % of control
[11]
  T/C: 94 % of control
[12]
  T/C: 89 % of control

## O=S(=O)(Nc1ccc(NS(=O)(=O)c2ccccc2)cc1)c1ccccc1
[4]
  T/C: 100 % of control
[13]
  T/C: 109 % of control
[14]
  T/C: 100 % of control

## CCOC(OCC)C(N)=O
[15]
  T/C: 105 % of control
[16]
  T/C: 109 % of control
[17]
  T/C: 100 % of control

## O=c1oc2c(O)c(O)cc3c(=O)oc4c(O)c(O)cc1c4c23
[10]
  T/C: 121 % of control
[4]
  T/C: 100 % of control
[11]
  T/C: 123 % of control
[13]
  T/C: 103 % of control
[12]
  T/C: 117 % of control and 123 % of control
[14]
  T/C: 112 % of control
dose: 400.0 mg/kg/injection, schedule: Q01DX009 (ip), vehicle: other
  T/C: 102 % of control and 108 % of control

## C[Si](C)(CNCCN)c1ccccc1
[7]
  T/C: 101 % of control
dose: 60.0 mg/kg/injection, schedule: Q01DX005 (ip), vehicle: saline
  T/C: 91 % of control
[8]
  T/C: 105 % of control
dose: 120.0 mg/kg/injection, schedule: Q01DX005 (ip), vehicle: saline
  T/C: 93 % of control
[9]
  T/C: 101 % of control

## CN(C)P(c1ccccc1)N(C)C
[1]
  T/C: 106 % of control
[2]
  T/C: 102 % of control
[3]
  T/C: 107 % of control

## CC1=NN(C(=O)CC(=O)Nc2ccc(C(=O)O)cc2)C(=O)C1N=Nc1ccccc1C(=O)O (centres undefined)
[15]
  T/C: 110 % of control
[16]
  T/C: 111 % of control
[17]
  T/C: 110 % of control

## O=c1[nH]c2c(ccc3cnccc32)c2c1CCC2
dose: 12.5 mg/kg/injection, schedule: Q01DX009 (ip), vehicle: saline
  T/C: 122 % of control
[6]
  T/C: 94 % of control

## C=C1C(=O)SC(=NCc2ccccc2)N1C
[7]
  T/C: 96 % of control
[8]
  T/C: 90 % of control
[9]
  T/C: 91 % of control

## C=C1CCC2C1C1C(C(C)C)CCC21C (centres undefined)
dose: 12.5 mg/kg/injection, schedule: Q01DX009 (ip), vehicle: saline with Tween-80
  T/C: 92 % of control
dose: 25.0 mg/kg/injection, schedule: Q01DX009 (ip), vehicle: saline with Tween-80
  T/C: 96 % of control
dose: 50.0 mg/kg/injection, schedule: Q01DX009 (ip), vehicle: saline with Tween-80
  T/C: 93 % of control

## N#Cc1cc2cc3c4c(c2oc1=O)CCCN4CCC3
dose: 50.0 mg/kg/injection, schedule: Q01DX005 (ip), vehicle: Klucel (hydroxypropylcellulose) (HPC)
  T/C: 95 % of control
dose: 100.0 mg/kg/injection, schedule: Q01DX005 (ip), vehicle: Klucel (hydroxypropylcellulose) (HPC)
  T/C: 94 % of control
dose: 200.0 mg/kg/injection, schedule: Q01DX005 (ip), vehicle: Klucel (hydroxypropylcellulose) (HPC)
  T/C: 95 % of control

## COc1ccc2c(c1)n([O-])c1ccccc1[n+]2=O
dose: 25.0 mg/kg/injection, schedule: Q01DX005 (ip), vehicle: saline with Tween-80
  T/C: 122 % of control
[16]
  T/C: 157 % of control and 172 % of control

## CC(=O)N1NC(=O)c2c(c3cc(OCc4ccccc4)ccc3n2C)C1C(C)C (centres undefined)
dose: 30.0 mg/kg/injection, schedule: Q04DX002 (ip), vehicle: Klucel (hydroxypropylcellulose) (HPC)
  T/C: 98 % of control
dose: 60.0 mg/kg/injection, schedule: Q04DX002 (ip), vehicle: Klucel (hydroxypropylcellulose) (HPC)
  T/C: 96 % of control
dose: 120.0 mg/kg/injection, schedule: Q04DX002 (ip), vehicle: Klucel (hydroxypropylcellulose) (HPC)
  T/C: 96 % of control

## OCc1cc2ccc3ccccc3c2[nH]1
[7]
  T/C: 96 % of control
[8]
  T/C: 89 % of control
[9]
  T/C: 91 % of control

— PubChem BioAssay AID330 (DTP/NCI, 2004)
